Results on four compounds are retold here after PubChem BioAssay AID1745844 (Carcinogenic Potency Database (CPDB), 2022).

Values joined by “and” are separate entries in the source; they are usually repeats but may differ in a detail not shown here. Equal values may be shown once. Active and inactive are the calls of the source. How the calls were made is not given here.

This data set has as its system rodent lifetime carcinogenesis bioassay, tumor incidence TD50. In words: chronic cancer bioassays in animals – CPDB, compiled studies (AID 1745844).

Turning to `O=C(O)C1=NN(c2ccc(S(=O)(=O)O)cc2)C(=O)C1N=Nc1ccc(S(=O)(=O)O)cc1` (centres undefined), the TD50 (mouse, strain Charles River CD1, females, in feed, site: all sites, lesion: malignant lymphoma, lymphocytic type, dosed 104 weeks, study length 104 weeks) was 1430 mg/kg/day (inactive); the TD50 (mouse, strain Charles River CD1, females, in feed, site: any site (literature study), lesion: malignant tumor, dosed 104 weeks, study length 104 weeks) was 1560 mg/kg/day (inactive); the TD50 (mouse, strain Charles River CD1, females, in feed, site: liver, lesion: hepatocellular adenoma, dosed 104 weeks, study length 104 weeks) is 200000 mg/kg/day (inactive); the TD50 (mouse, strain Charles River CD1, males, in feed, site: all sites, lesion: malignant lymphoma, lymphocytic type, dosed 104 weeks, study length 104 weeks) is 11800 mg/kg/day (inactive); the TD50 (mouse, strain Charles River CD1, males, in feed, site: any site (literature study), lesion: benign tumor, dosed 104 weeks, study length 104 weeks) was 388 mg/kg/day (inactive); the TD50 (mouse, strain Charles River CD1, males, in feed, site: any site (literature study), lesion: malignant tumor, dosed 104 weeks, study length 104 weeks) is 1810 mg/kg/day (inactive). Also, the TD50 by setting is: (mouse, strain Charles River CD1, males, in feed, site: liver, lesion: hepatocellular adenocarcinoma, dosed 104 weeks, study length 104 weeks) 61100 mg/kg/day (inactive); (mouse, strain Charles River CD1, males, in feed, site: liver, lesion: hepatocellular adenoma, dosed 104 weeks, study length 104 weeks) 2150 mg/kg/day (inactive); (mouse, strain Charles River CD1, males, in feed, site: lung, lesion: alveolar/bronchiolar adenoma, dosed 104 weeks, study length 104 weeks) 42500 mg/kg/day (inactive); (rat, strain F344/DuCrj, females, in drinking water, site: uterus, lesion: endometrial stromal polyp, dosed 104 weeks, study length 112 weeks) 5780 mg/kg/day (inactive); (rat, strain F344/DuCrj, males, in drinking water, site: abdominal cavity, lesion: mesothelioma, dosed 104 weeks, study length 112 weeks) 2820 mg/kg/day (inactive); (rat, strain Osborne-Mendel, both sexes, in feed, site: liver, lesion: adenoma, dosed 104 weeks, study length 104 weeks) 231000 mg/kg/day (inactive). Moreover, the carcinogen call is “negative (inactive)” (mouse, strain Charles River CD1, females, in feed, site: any site (literature study), lesion: benign tumor, dosed 104 weeks, study length 104 weeks); “negative (inactive)” (mouse, strain Charles River CD1, females, in feed, site: liver, lesion: hepatocellular adenocarcinoma, dosed 104 weeks, study length 104 weeks); “negative (inactive)” (mouse, strain Charles River CD1, females, in feed, site: lung, lesion: alveolar/bronchiolar adenocarcinoma, dosed 104 weeks, study length 104 weeks); “negative (inactive)” (mouse, strain Charles River CD1, females, in feed, site: lung, lesion: alveolar/bronchiolar adenoma, dosed 104 weeks, study length 104 weeks); “negative (inactive)” (mouse, strain Charles River CD1, males, in feed, site: lung, lesion: alveolar/bronchiolar adenocarcinoma, dosed 104 weeks, study length 104 weeks); “negative (inactive)” (rat, strain F344/DuCrj, females, in drinking water, site: any site (literature study), lesion: one or several types, types not named, dosed 104 weeks, study length 112 weeks). The carcinogen call (rat, strain F344/DuCrj, females, in drinking water, site: liver, lesion: neoplastic nodule, dosed 104 weeks, study length 112 weeks) is “negative (inactive)”; the carcinogen call (rat, strain F344/DuCrj, males, in drinking water, site: any site (literature study), lesion: one or several types, types not named, dosed 104 weeks, study length 112 weeks) is “negative (inactive)”; the carcinogen call (rat, strain F344/DuCrj, males, in drinking water, site: liver, lesion: hepatocellular carcinoma, dosed 104 weeks, study length 112 weeks) is “negative (inactive)”; the carcinogen call (rat, strain F344/DuCrj, males, in drinking water, site: liver, lesion: neoplastic nodule, dosed 104 weeks, study length 112 weeks) was “negative (inactive)”; the carcinogen call (rat, strain Not specified, females, in feed, site: any site (literature study), lesion: several types, types named in the paper, dosed 64 weeks, study length 64 weeks) was “negative (inactive)”; the carcinogen call (rat, strain Not specified, females, in feed, site: liver, lesion: one or several types, types not named, dosed 64 weeks, study length 64 weeks) was “negative (inactive)”. Besides, the carcinogen call is “negative (inactive)” (rat, strain Not specified, males, in feed, site: any site (literature study), lesion: several types, types named in the paper, dosed 64 weeks, study length 64 weeks); “negative (inactive)” (rat, strain Not specified, males, in feed, site: liver, lesion: one or several types, types not named, dosed 64 weeks, study length 64 weeks); “negative (inactive)” (rat, strain Osborne-Mendel, both sexes, in feed, site: any site (literature study), lesion: malignant tumor, dosed 104 weeks, study length 104 weeks); “negative (inactive)” (rat, strain Osborne-Mendel, both sexes, in feed, site: any site (literature study), lesion: several types, types named in the paper, dosed 104 weeks, study length 104 weeks).

With `C=CCN(N=O)C(N)=O`, the TD50 is, setting by setting: (rat, strain Fischer 344, females, by gavage, site: forestomach, lesion: one or several types, types not named, dosed 30 weeks, study length 104 weeks) 0.476 mg/kg/day; (rat, strain Fischer 344, females, by gavage, site: mammary gland, lesion: adenocarcinoma, dosed 30 weeks, study length 104 weeks) 0.601 mg/kg/day; (rat, strain Fischer 344, females, by gavage, site: uterus, lesion: several types, types named in the paper, dosed 30 weeks, study length 104 weeks) 1.87 mg/kg/day; (rat, strain Fischer 344, males, by gavage, site: Zymbal's gland, lesion: one or several types, types not named, dosed 30 weeks, study length 104 weeks) 0.541 mg/kg/day; (rat, strain Fischer 344, males, by gavage, site: colon, lesion: one or several types, types not named, dosed 30 weeks, study length 104 weeks) 0.541 mg/kg/day; (rat, strain Fischer 344, males, by gavage, site: forestomach, lesion: one or several types, types not named, dosed 30 weeks, study length 104 weeks) 0.266 mg/kg/day. Further, the TD50 (rat, strain Fischer 344, males, by gavage, site: lung, lesion: several types, types named in the paper, dosed 30 weeks, study length 104 weeks) was 0.421 mg/kg/day.

As to `CC(O)c1ccccc1` (centres undefined), the carcinogen call (mouse, strain B6C3F1, females, by gavage, site: any site (literature study), lesion: several types, types named in the paper, dosed 103 weeks, study length 104 weeks) is “negative (inactive)”. Besides, the TD50 is, setting by setting: (mouse, strain B6C3F1, males, by gavage, site: any site (literature study), lesion: several types, types named in the paper, dosed 103 weeks, study length 104 weeks) 2230 mg/kg/day (inactive); (rat, strain Fischer 344, females, by gavage, site: any site (literature study), lesion: several types, types named in the paper, dosed 103 weeks, study length 104 weeks) 826 mg/kg/day; (rat, strain Fischer 344, females, by gavage, site: liver, lesion: hepatocellular adenoma + hepatocellular carcinoma + neoplastic nodule, dosed 103 weeks, study length 104 weeks) 8630 mg/kg/day; (rat, strain Fischer 344, females, by gavage, site: pancreatic islets, lesion: islet-cell adenoma, dosed 103 weeks, study length 104 weeks) 2300 mg/kg/day (inactive); (rat, strain Fischer 344, males, by gavage, site: adrenal medulla, lesion: pheochromocytoma + pheochromocytoma, malignant, dosed 103 weeks, study length 104 weeks) 135 mg/kg/day; (rat, strain Fischer 344, males, by gavage, site: any site (literature study), lesion: several types, types named in the paper, dosed 103 weeks, study length 104 weeks) 88.6 mg/kg/day. Further, the TD50 reads like this: (rat, strain Fischer 344, males, by gavage, site: kidney, lesion: tubular-cell adenoma + tubular-cell adenocarcinoma, dosed 103 weeks, study length 104 weeks) 458 mg/kg/day and 944 mg/kg/day; (rat, strain Fischer 344, males, by gavage, site: kidney, lesion: tubular-cell adenoma, dosed 103 weeks, study length 104 weeks) 984 mg/kg/day and 564 mg/kg/day; (rat, strain Fischer 344, males, by gavage, site: liver, lesion: hepatocellular adenoma + hepatocellular carcinoma + neoplastic nodule, dosed 103 weeks, study length 104 weeks) 4800 mg/kg/day; (rat, strain Fischer 344, males, by gavage, site: lung, lesion: alveolar/bronchiolar adenoma + alveolar/bronchiolar carcinoma, dosed 103 weeks, study length 104 weeks) 1050 mg/kg/day; (rat, strain Fischer 344, males, by gavage, site: preputial gland, lesion: carcinoma, NOS, dosed 103 weeks, study length 104 weeks) 1270 mg/kg/day; (rat, strain Fischer 344, males, by gavage, site: testis, lesion: interstitial-cell tumor, dosed 103 weeks, study length 104 weeks) 51.5 mg/kg/day.

On to `CCCCOC(=O)c1ccc(O)cc1`, for which the TD50 by setting is: (mouse, strain ICR/Jcl, females, in feed, site: any site (literature study), lesion: several types, types named in the paper, dosed 102 weeks, study length 106 weeks) 2720 mg/kg/day (inactive); (mouse, strain ICR/Jcl, females, in feed, site: lung, lesion: one or several types, types not named, dosed 102 weeks, study length 106 weeks) 5100 mg/kg/day (inactive); (mouse, strain ICR/Jcl, males, in feed, site: any site (literature study), lesion: several types, types named in the paper, dosed 102 weeks, study length 106 weeks) 5240 mg/kg/day (inactive); (mouse, strain ICR/Jcl, males, in feed, site: liver, lesion: one or several types, types not named, dosed 102 weeks, study length 106 weeks) 27400 mg/kg/day (inactive); (mouse, strain ICR/Jcl, males, in feed, site: lung, lesion: one or several types, types not named, dosed 102 weeks, study length 106 weeks) 119000 mg/kg/day (inactive). In addition, where the note is “mouse, strain ICR/Jcl, females, in feed, site: liver, lesion: one or several types, types not named, dosed 102 weeks, study length 106 weeks”, the carcinogen call is “negative (inactive)”.
